This is an account of results in US20230364007A1, “ADMINISTRATION OF A P[…]” (Reset Pharmaceuticals, Inc., priority 2022, published 2023).

Data set [1] can be described thus: Particle size distribution (PSD) analysis by laser diffraction. As to conditions: primary pressure of 4 bar, lens R1, R3 or R5 per sample. The format is physicochemical. The protocol: (§1) In order to provide a small and homogeneous particle size of psychedelic compound in the final suspensions, psilocybin and psilocin were micronised before use. Micronisation was performed by wet bead milling using decafluoropentane as the antisolvent. In a glass vial, 200 mg psychedelic compound and 2 g of 1 mm silica beads were weighed. 3 mL of the antisolvent was added for psilocybin and 2 mL for psilocin. The samples were vortexed for approximately 15 seconds then milled at 530 rpm for 60 minutes.
(§2) The micronised sample was then separated from the silica beads and transferred to a petri dish and left at room temperature to allow for evaporation of the solvent overnight (approximately 18 hours). The dried sample was then collected and characterised by PSD and XRPD.
Particle size analysis was carried out, in single analysis, by laser diffraction using a Sympatec Helos particle size analyser, equipped with a RODOS dry dispersion unit and ASPIROS feeder unit. The lens and primary pressures were varied for each compound tested.

Data set [2] can be described thus: Two-compartment IV bolus PK model fitted to published human psilocybin IV data. Conditions: psilocin after 1 mg psilocybin IV. The protocol: All analysis was performed using the software R and RStudio, with models being defined using analytical and ODE solutions.
Derivation of system PK parameters for psilocybin/psilocin Systemic PK parameters were derived for published human bolus psilocybin IV data.
Human IV PK data for psilocin after psilocybin was administered was taken from Hasler et al. “Determination of psilocin and 4-hydroxyindole-3-acetic acid in plasma by HPLC-ECD and pharmacokinetic profiles of oral and intravenous psilocybin in man”. Pharm Acta Helv. 1997 June; 72(3):175-84. Model selection was performed by assessing visual fit to data and the respective model AIC's of a one compartment and two compartment IV PK model. These systemic human PK parameters were then used for human […] injection simulations by simulating the PK profiles over a range of doses and absorption rates.
It is assumed that the generation of psilocin is instantaneous and complete once psilocybin is absorbed.
An IV two compartment model best described the IV data from FIG. 2. A two-compartment model gave a good description of the raw data capturing the Cmax and terminal phase well, FIG. 3. The systemic PK parameters can be seen in Table 1 and there are low errors in the parameter estimates.

Data set [3] is described as follows: One compartment SC PK model of psilocin fitted to digitised rat SC data. The protocol: Rat SC PK data was digitised for four dose levels (Higgins, G. A. et al., 2021. “Low Doses of Psilocybin and Ketamine Enhance Motivation and Attention in Poor Performing Rats: Evidence for an Antidepressant Property”. Frontiers in Pharmacology, Volume 12, p. 299). The PK was fitted using a one compartment SC model where volume was fixed to the same as human in L/kg. The model was fit to the lower 3 doses levels as the higher dose was determined to be out of the range of investigation.
A one compartment model was used with linear absorption and clearance shown schematically in […]. Mathematically, this model is a series of two linked ordinary differential equations (ODE's) given in equations (7)-(8).
Constant ka is the absorption rate constant (units 1/h), Cl is the clearance (units mL/h), Vc is the volume of distribution of the central compartment (units mL).
It is assumed that the generation of psilocin is instantaneous once psilocybin is absorbed. Due to a lack of rat IV PK data and human and rat plasma protein binding data, total rat volume of distribution (V) on ml/kg basis was fixed to the same as human total volume of distribution. A one compartment SC model gives a satisfactory fit to the absorption phase, seen in FIG. 5, this gives good confidence of the fitted ka value seen in Table 2. Bioavailability was again assumed to be 1.

A short description of data set [4]: Human simulations of psilocin exposure after SC administration. Conditions: from absorption rate of rat SC model. The procedure:
The model that was used is shown schematically in FIG. 6, mathematically the analytical solution is shown in equations (9)-(14).
Using the absorption rate from modelling the rat SC data and the human systemic psilocin PK parameters, human SC simulations were run over 1-12 mg doses and the simulated PK profiles can be seen in FIG. 7. […] These profiles can be seen in FIG. 8, with the summary statistics in Table 4.

The next data set in a line: XRPD after micronisation. The data set is classed as physicochemical. Conditions: wet bead milling in decafluoropentane. The protocol:
as §1, §2
X-ray powder diffraction (XRPD) analysis was carried out using a Bruker D2 Phaser powder diffractometer equipped with a LynxEye detector. The specimens were located at the centre of a silicon sample holder within a 5 mm pocket. The samples were continuously spun during data collection and scanned using a step size of 0.02° two theta (2θ) between 5° to 60° two theta, the detailed parameters are summarised in Table 10. The data was processed using Diffrac Plus EVA software (Version 3.1).

The nature of data set [5]: Solubility in excipients (preparative work).
The conditions of data set [6]: reported; cited from earlier work.
[7] abbreviates: psilocin after SC psilocybin, rat, fit to 0.05, 0.1, 1 mg/kg.

In data set [1], `CN(C)CCc1c[nH]c2cccc(O)c12` [Micronised psilocin] yielded a D10 of 0.44 μm.
As to `CN(C)CCc1c[nH]c2cccc(OP(=O)(O)O)c12` [Micronised psilocybin], in data set [1], the D10 turned out to be 0.45 μm and the D50 came out at 1.20 μm.
On to `CN(C)CCc1c[nH]c2cccc(O)c12` [psilocin, 4-hydroxy-N,N-dimethyltryptamine], for which, in data set [2], the “Cl, clearance (95% CI)” value is given as 3810 (3340, 4290) ml/min; the “V, volume of distribution of the central compartment (95% CI)” value was 88600 (77300, 99900) ml; the “k12 (95% CI)” value is 0.176 (0.144, 0.208) /min; the “k21 (95% CI)” value is recorded as 0.0489 (0.0388, 0.0591) /min. Also, the “dose normalised AUC” value in data set [3] (10 mg/kg SC psilocybin dose in rats versus other doses (not shown)) is reported as “considerably greater than the other doses”. Moreover, in data set [3] (setting [7]), the “Cl (95% CI)” value was 2490 (2260, 2710) mL/h and the “ka, absorption rate constant (95% CI)” value was 2.32 (2.03, 2.61) /h. Further, in data set [3] (rat, fixed to human total volume of distribution on ml/kg basis), the V is 1746 (Fixed) mL. Further, the absorption half-life in data set [4] was 17.9 min. Also, in the data set “XRPD after micronisation”, the “chemical degradation upon micronisation (XRPD)” value is given as “no significant chemical degradation upon micronisation”. Further, in data set [5] (initial solution trials), the “solubility versus pH” value is “higher solubility at acidic pH”. In addition, the “solubility in DMSO and NMP” value in data set [5] (non-micronised) is given as “good”.
For `CN(C)CCc1c[nH]c2cccc(OP(=O)(O)O)c12` [psilocybin, [3-(2-dimethylaminoethyl)-1H-indol-4-yl] dihydrogen phosphate], in the data set “XRPD after micronisation”, the “chemical degradation upon micronisation (XRPD)” value is “no significant chemical degradation upon micronisation”. In data set [6], the bioavailability entry was “approximately 50%”. Also, the “solubility in all the excipients tested” value in data set [5] (non-micronised, 20 excipients) is “poor”.
